Results from patent US9539260B2, “Dihydro-benzo-oxazine and dihydro-pyrido-oxazine derivatives” (Novartis AG, priority 2012, dated 2017).

Experiments:
PI3K alpha = PI3K alpha (Homo sapiens (Human), UniProt P42336); assay: Enzymatic PI3K alpha isoform inhibition (lipid kinase activity, Kinase-Glo luminescence); assay type: biochemical; conditions: Enzymatic assay
Outline: (§1)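 ATP-depletion format: 10 nM PI3K with 5 μg/mL phosphatidylinositol and 2 μM ATP, run to ~50% ATP consumption, then Kinase-Glo added and remaining ATP read by luminescence after 5 min. IC50 from 4-parameter logistic fit, typically over 8 concentrations 10–0.003 μM.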

PI3K delta = PI3K delta (Homo sapiens (Human), UniProt O00329); assay: Enzymatic PI3K delta isoform inhibition (lipid kinase activity, Kinase-Glo luminescence); assay type: biochemical; conditions: Enzymatic assay
Sequence of PI3K delta (O00329 other isoform, or with tags, fused parts or gaps linker GGGGGG): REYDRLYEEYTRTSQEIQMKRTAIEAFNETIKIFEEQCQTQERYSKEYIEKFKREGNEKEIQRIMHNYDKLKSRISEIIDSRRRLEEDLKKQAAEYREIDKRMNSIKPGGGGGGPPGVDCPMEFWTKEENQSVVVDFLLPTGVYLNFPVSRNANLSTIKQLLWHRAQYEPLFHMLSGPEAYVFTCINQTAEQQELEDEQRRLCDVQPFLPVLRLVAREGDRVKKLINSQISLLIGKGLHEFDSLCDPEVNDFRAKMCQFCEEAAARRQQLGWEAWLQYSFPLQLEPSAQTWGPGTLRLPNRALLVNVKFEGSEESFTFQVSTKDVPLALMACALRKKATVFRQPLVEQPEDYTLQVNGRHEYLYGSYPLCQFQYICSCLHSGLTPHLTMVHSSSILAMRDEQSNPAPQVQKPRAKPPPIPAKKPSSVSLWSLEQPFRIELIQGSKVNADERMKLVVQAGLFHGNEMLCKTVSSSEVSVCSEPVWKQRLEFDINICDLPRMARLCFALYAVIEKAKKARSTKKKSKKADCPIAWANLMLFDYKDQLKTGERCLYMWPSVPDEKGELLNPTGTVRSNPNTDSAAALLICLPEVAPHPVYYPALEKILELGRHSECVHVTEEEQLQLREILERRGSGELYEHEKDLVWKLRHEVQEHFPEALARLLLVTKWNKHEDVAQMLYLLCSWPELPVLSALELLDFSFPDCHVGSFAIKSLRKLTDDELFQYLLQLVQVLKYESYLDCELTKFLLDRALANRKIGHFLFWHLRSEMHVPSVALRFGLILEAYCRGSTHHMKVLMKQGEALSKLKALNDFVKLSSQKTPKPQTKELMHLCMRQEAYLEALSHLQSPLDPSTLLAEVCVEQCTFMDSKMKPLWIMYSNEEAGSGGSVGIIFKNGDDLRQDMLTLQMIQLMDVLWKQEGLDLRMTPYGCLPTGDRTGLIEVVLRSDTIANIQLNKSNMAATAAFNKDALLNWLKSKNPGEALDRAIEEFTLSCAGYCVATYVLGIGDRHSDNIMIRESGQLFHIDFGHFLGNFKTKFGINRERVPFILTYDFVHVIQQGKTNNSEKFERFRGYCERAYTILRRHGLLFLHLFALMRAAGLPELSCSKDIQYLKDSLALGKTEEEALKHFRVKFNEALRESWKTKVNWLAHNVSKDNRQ
Outline: as §1

Sequence of PI3K alpha (P42336 other isoform, or with tags, fused parts or gaps): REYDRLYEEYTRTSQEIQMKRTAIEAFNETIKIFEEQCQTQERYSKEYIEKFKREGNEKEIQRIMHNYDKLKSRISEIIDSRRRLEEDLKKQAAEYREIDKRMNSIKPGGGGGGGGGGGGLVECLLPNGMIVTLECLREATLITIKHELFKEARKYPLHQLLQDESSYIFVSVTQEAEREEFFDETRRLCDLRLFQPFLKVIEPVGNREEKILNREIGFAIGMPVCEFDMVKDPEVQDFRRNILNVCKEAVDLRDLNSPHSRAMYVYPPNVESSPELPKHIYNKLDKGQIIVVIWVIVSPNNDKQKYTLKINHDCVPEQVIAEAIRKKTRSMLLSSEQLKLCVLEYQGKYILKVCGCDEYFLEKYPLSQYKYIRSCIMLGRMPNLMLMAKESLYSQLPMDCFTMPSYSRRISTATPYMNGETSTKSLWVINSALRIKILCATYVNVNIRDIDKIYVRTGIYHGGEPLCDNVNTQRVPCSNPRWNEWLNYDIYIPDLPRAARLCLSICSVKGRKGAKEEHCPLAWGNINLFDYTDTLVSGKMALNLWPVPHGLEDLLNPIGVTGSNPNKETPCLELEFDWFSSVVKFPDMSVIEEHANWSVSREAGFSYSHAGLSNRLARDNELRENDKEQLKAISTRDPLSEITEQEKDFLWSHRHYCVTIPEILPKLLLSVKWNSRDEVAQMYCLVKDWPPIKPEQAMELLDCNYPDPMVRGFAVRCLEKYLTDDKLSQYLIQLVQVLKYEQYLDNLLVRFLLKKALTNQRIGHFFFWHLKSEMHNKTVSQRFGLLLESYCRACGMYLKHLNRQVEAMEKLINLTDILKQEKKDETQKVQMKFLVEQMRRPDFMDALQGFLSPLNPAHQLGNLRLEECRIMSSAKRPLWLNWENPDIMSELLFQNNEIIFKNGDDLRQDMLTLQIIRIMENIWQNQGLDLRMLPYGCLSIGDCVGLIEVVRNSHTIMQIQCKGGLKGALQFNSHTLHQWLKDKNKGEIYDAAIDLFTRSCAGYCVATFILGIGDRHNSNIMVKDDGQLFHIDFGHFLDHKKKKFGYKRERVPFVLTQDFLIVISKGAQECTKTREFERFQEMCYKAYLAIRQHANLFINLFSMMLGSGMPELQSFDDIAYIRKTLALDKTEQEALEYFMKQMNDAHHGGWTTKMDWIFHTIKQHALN

Structure (SMILES) | IC50 (PI3K alpha) [nM] | IC50 (PI3K delta) [nM]
COc1ncc(N2CCOc3ccc(O[C@H]4CCN(C(=O)c5cn(C)cn5)C4)cc32)cc1N [T, {(S)-3-[4-(5-Amino-6-methoxy-pyridin-3-yl)-3,4-dihydro-2H-benzo[1,4]oxazin-6-yloxy]-pyrrolidin-1-yl}-(1-methyl-1H-imidazol-4-yl)-methanone] | 1880 | 76
Cc1cc(N2CCOc3ccc(O[C@H]4CCN(C(=O)C5CCS(=O)(=O)C5)C4)cc32)cnc1S(C)(=O)=O (stereo partly drawn) [Example H2] | 913 | 13
COc1ncc(N2CCOc3cnc(O[C@H]4CCN(C(=O)C5CCS(=O)(=O)CC5)C4)cc32)cc1C#N [Example F13, 5-{7-[(S)-1-(1,1-Dioxo-hexahydro-1lambda*6*-thiopyran-4-carbonyl)-pyrrolidin-3-yloxy]-2,3-dihydro-pyrido[3,4-b][1,4]oxazin-1-yl}-2-methoxy-nicotinonitrile] | 704 | 24
Cc1cc(N2CCOc3ccc(O[C@H]4CCN(C(=O)c5ccccc5)C4)cc32)cnc1S(C)(=O)=O [Example B34, {(S)-3-[4-(6-Methanesulfonyl-5-methyl-pyridin-3-yl)-3,4-dihydro-2H-benzo[1,4]oxazin-6-yloxy]-pyrrolidin-1-yl}-phenyl-methanone] | 795 | 46
COc1ccc(N2CCOc3ccc(O[C@H]4CCN(C(=O)CN5CCOCC5)C4)cc32)cn1 [Example D2, 1-{(S)-3-[4-(6-Methoxy-pyridin-3-yl)-3,4-dihydro-2H-benzo[1,4]oxazin-6-yloxy]-pyrrolidin-1-yl}-2-morpholin-4-yl-ethanone] | 2740 | 149
COCCC(=O)N1CC[C@H](Oc2ccc3c(c2)N(c2cnc(OC)c(F)c2)CCO3)C1 [Example B114, 1-{(S)-3-[4-(5-Fluoro-6-methoxy-pyridin-3-yl)-3,4-dihydro-2H-benzo[1,4]oxazin-6-yloxy]-pyrrolidin-1-yl}-3-methoxy-propan-1-one] | 1440 | 71
Cc1cc(N2CCOc3ccc(O[C@H]4CCN(C(=O)C5CCS(=O)(=O)C5)C4)cc32)cnc1S(C)(=O)=O (stereo partly drawn) [Example B35, (1,1-Dioxo-tetrahydro-1lambda*6*-thiophen-3-yl)-{(S)-3-[4-(6-methanesulfonyl-5-methyl-pyridin-3-yl)-3,4-dihydro-2H-benzo[1,4]oxazin-6-yloxy]-pyrrolidin-1-yl}-methanone] | 1390 | 27
COc1ncc(N2CCOc3ccc(O[C@H]4CCN(C(=O)CS(C)(=O)=O)C4)cc32)cc1F [Example B111, 1-{(S)-3-[4-(5-Fluoro-6-methoxy-pyridin-3-yl)-3,4-dihydro-2H-benzo[1,4]oxazin-6-yloxy]-pyrrolidin-1-yl}-2-methanesulfonyl-ethanone] | 685 | 60
COc1ncc(N2CCOc3cnc(O[C@@H]4CCN(C(=O)C5CCS(=O)(=O)CC5)C4)cc32)cc1C [Example G2, (1,1-Dioxo-hexahydro-1lambda*6*-thiopyran-4-yl)-{(R)-3-[1-(6-methoxy-5-methyl-pyridin-3-yl)-2,3-dihydro-1H-pyrido[3,4-b][1,4]oxazin-7-yloxy]-pyrrolidin-1-yl}-methanone] | 1200 | 207
CCS(=O)(=O)c1ccc(N2CCOc3ccc(O[C@H]4CCN(C(=O)C5CCOCC5)C4)cc32)cn1 [Example B87, {(S)-3-[4-(6-Ethanesulfonyl-pyridin-3-yl)-3,4-dihydro-2H-benzo[1,4]oxazin-6-yloxy]-pyrrolidin-1-yl}-(tetrahydro-pyran-4-yl)-methanone] | 7090 | 29
COc1cc(N2CCOc3ccc(O[C@H]4CCN(C(=O)C5CCOCC5)C4)cc32)cnc1S(C)(=O)=O [Example B9, {(S)-3-[4-(6-Methanesulfonyl-5-methoxy-pyridin-3-yl)-3,4-dihydro-2H-benzo[1,4]oxazin-6-yloxy]-pyrrolidin-1-yl}-(tetrahydro-pyran-4-yl)-methanone] | 1770 | 78
Cc1cc(N2CCOc3ccc(O[C@H]4CCN(C(=O)Cc5ccncc5)C4)cc32)cnc1S(C)(=O)=O [Example B68, 1-{(S)-3-[4-(6-Methanesulfonyl-5-methyl-pyridin-3-yl)-3,4-dihydro-2H-benzo[1,4]oxazin-6-yloxy]-pyrrolidin-1-yl}-2-pyridin-4-yl-ethanone] | 840 | 39

Stronger by IC50 (PI3K alpha), values ahead:

IC50 (PI3K alpha) [nM] | IC50 (PI3K delta) [nM] | Structure (SMILES)
488 | 21 | COc1ncc(N2CCOc3ccc(O[C@H]4CCN(C(=O)C5CNC(=O)C5)C4)cc32)cc1C#N (stereo partly drawn) [Example C19, 2-Methoxy-5-{6-[(S)-1-(5-oxo-pyrrolidine-3-carbonyl)-pyrrolidin-3-yloxy]-2,3-dihydro-benzo[1,4]oxazin-4-yl}-nicotinonitrile]
372 | 56 | COc1ncc(N2CCOc3cnc(O[C@H]4CCN(C(=O)c5ncn(C)c5N)C4)cc32)cc1C(F)(F)F [Example G3, (5-Amino-1-methyl-1H-imidazol-4-yl)-{(S)-3-[1-(6-methoxy-5-trifluoromethyl-pyridin-3-yl)-2,3-dihydro-1H-pyrido[3,4-b][1,4]oxazin-7-yloxy]-pyrrolidin-1-yl}-methanone]
220 | 18 | CCC(=O)N1CC[C@H](Oc2ccc3c(c2)N(c2cnc(OC)c(C(F)(F)F)c2)CCO3)C1 [Example A10, 1-{(S)-3-[4-(6-Methoxy-5-trifluoromethyl-pyridin-3-yl)-3,4-dihydro-2H-benzo[1,4]oxazin-6-yloxy]-pyrrolidin-1-yl}-propan-1-one]
299 | 8 | COc1ncc(N2CCOc3ccc(O[C@H]4CCN(C(=O)C5CCS(=O)(=O)C5)C4)cc32)cc1F (single isomer, unassigned) [Example H11]
385 | 62 | COc1ncc(N2CCOc3ccc(O[C@H]4CCN(C(=O)CC(C)C)C4)cc32)cc1C#N [Example D10, 2-Methoxy-5-{6-[(S)-1-(3-methyl-butyryl)-pyrrolidin-3-yloxy]-2,3-dihydro-benzo[1,4]oxazin-4-yl}-nicotinonitrile]
188 | 25 | Cc1cc(N2CCOc3ccc(O[C@H]4CCN(C(=O)c5cn(C)cn5)C4)cc32)cnc1S(C)(=O)=O [Example B8, {(S)-3-[4-(6-Methanesulfonyl-5-methyl-pyridin-3-yl)-3,4-dihydro-2H-benzo[1,4]oxazin-6-yloxy]-pyrrolidin-1-yl}-(1-methyl-1H-imidazol-4-yl)-methanone]
503 | 7 | COc1ncc(N2CCOc3ccc(O[C@H]4CCN(C(=O)C5CCS(=O)(=O)CC5)C4)cc32)cc1C#N [Example D16, 5-{6-[(S)-1-(1,1-Dioxo-hexahydro-1lambda*6*-thiopyran-4-carbonyl)-pyrrolidin-3-yloxy]-2,3-dihydro-benzo[1,4]oxazin-4-yl}-2-methoxy-nicotinonitrile]
192 | 15 | COc1ncc(N2CCOc3ccc(O[C@H]4CCN(C(=O)c5cn(C)cn5)C4)cc32)cc1NS(C)(=O)=O [U, N-(2-Methoxy-5-{6-[(S)-1-(1-methyl-1H-imidazole-4-carbonyl)-pyrrolidin-3-yloxy]-2,3-dihydro-benzo[1,4]oxazin-4-yl}-pyridin-3-yl)-methanesulfonamide]
474 | 12.5 | COc1ncc(N2CCOc3ccc(O[C@H]4CCN(C(=O)C5COCCO5)C4)cc32)cc1C#N (stereo partly drawn) [Example C25, 5-{6-[(S)-1-([1,4]Dioxane-2-carbonyl)-pyrrolidin-3-yloxy]-2,3-dihydro-benzo[1,4]oxazin-4-yl}-2-methoxy-nicotinonitrile]
531 | 16 | CCC(=O)N1CC[C@H](Oc2ccc3c(c2)N(c2cncc(S(=O)(=O)N4CCN(C)CC4)c2)CCO3)C1 [Example A28, 1-((S)-3-{4-[5-(4-Methyl-piperazine-1-sulfonyl)-pyridin-3-yl]-3,4-dihydro-2H-benzo[1,4]oxazin-6-yloxy}-pyrrolidin-1-yl)-propan-1-one]
476 | 21.5 | CCC(=O)N1CC[C@H](Oc2ccc3c(c2)N(c2cnc(S(C)(=O)=O)c(C)c2)CCO3)C1 [Example B97, 1-{(S)-3-[4-(6-Methanesulfonyl-5-methyl-pyridin-3-yl)-3,4-dihydro-2H-benzo[1,4]oxazin-6-yloxy]-pyrrolidin-1-yl}-propan-1-one]
239 | 4 | COc1ncc(N2CCOc3ccc(O[C@H]4CCN(C(=O)CCO)C4)cc32)cc1Cl [Example B107, 1-{(S)-3-[4-(5-Chloro-6-methoxy-pyridin-3-yl)-3,4-dihydro-2H-benzo[1,4]oxazin-6-yloxy]-pyrrolidin-1-yl}-3-hydroxy-propan-1-one]
450 | 7 | Cc1cc(N2CCOc3ccc(O[C@H]4CCN(C(=O)C5CCCCC5)C4)cc32)cnc1S(C)(=O)=O [Example B49, Cyclohexyl-{(S)-3-[4-(6-methanesulfonyl-5-methyl-pyridin-3-yl)-3,4-dihydro-2H-benzo[1,4]oxazin-6-yloxy]-pyrrolidin-1-yl}-methanone]
241 | 46 | COc1ncc(N2CCOc3ccc(O[C@H]4CCN(C(=O)c5cnco5)C4)cc32)cc1F [Example B103, {(S)-3-[4-(5-Fluoro-6-methoxy-pyridin-3-yl)-3,4-dihydro-2H-benzo[1,4]oxazin-6-yloxy]-pyrrolidin-1-yl}-oxazol-5-yl-methanone]
339 | 47 | COc1ncc(N2CCOc3ccc(O[C@H]4CCN(C(=O)c5cnn(C)c5)C4)cc32)cc1C [Example B20, {(S)-3-[4-(6-Methoxy-5-methyl-pyridin-3-yl)-3,4-dihydro-2H-benzo[1,4]oxazin-6-yloxy]-pyrrolidin-1-yl}-(1-methyl-1H-pyrazol-4-yl)-methanone]
